{"source": "patent US20170020909A1", "about": "“METHODS OF TREATING GLAUCOMA USING AMP-ACTIVATED PROTEIN KINASE (AMPK) ACTIVATORS” (Massachusetts Eye and Ear Infirmary, priority 2014, published 2017)", "key": {"[1]": {"test_system": "primary cultured human TM cells", "experiment": "Phalloidin (F-actin) immunofluorescent staining and morphology of primary cultured human TM cells", "assay_type": "cell-based", "experimental": "FIG. 6. […] Human TM cells were plated on 8-well slides, treated as in FIG. 3, and then stained with phalloidin (F-actin) antibody. Nuclei were stained with DAPI. Representative immunofluorescent images shown above (n=3). Scale bar, 50 μm. Primary human trabecular meshwork (TM) cells were isolated, in accordance with the Declaration of Helsinki, and maintained in culture as described previously.^63 Independent primary human TM cell lines were generated from donors ranging in age from 35 to 72 years and no known history of ocular disease. Cell cultures were maintained, unless otherwise stated, in Dulbecco's modified eagle medium (Life Technologies, Grand Island, N.Y.) containing 20% fetal bovine serum, 1% L-glutamine (2 mM), and gentamicin (0.1 mg/ml) at 37° C. in a 10% CO2 atmosphere. Only TM cells from third through fifth passage were used. All experiments were performed using at least three different primary human TM cell lines. TM cells in 8 well-slides were fixed for 30 minutes with 4% paraformaldehyde in PBS (pH 7.4) at 4° C., then washed in PBS for 10 minutes twice at RT. Cells were permeabilized with 0.2% Triton-100 in PBS for 5 min and then washed in PBS and blocked in 3% bovine serum albumin (BSA) in PBS for 1 hr at RT. […] Nuclei were stained with TO-DAPI (Invitrogen), and labeled tissues were analyzed by fluorescent light microscopy using a Zeiss Observer3.1."}, "[2]": {"test_system": "Acetyl-CoA carboxylase (ACC)", "experiment": "Time course immunoblot of p-ACC/total ACC in primary human TM cell lysates", "assay_type": "cell-based", "settings": "0.5 mM AICAR, human TM cells", "experimental": "Primary human trabecular meshwork (TM) cells were isolated, in accordance with the Declaration of Helsinki, and maintained in culture as described previously.^63 Independent primary human TM cell lines were generated from donors ranging in age from 35 to 72 years and no known history of ocular disease. Cell cultures were maintained, unless otherwise stated, in Dulbecco's modified eagle medium (Life Technologies, Grand Island, N.Y.) containing 20% fetal bovine serum, 1% L-glutamine (2 mM), and gentamicin (0.1 mg/ml) at 37° C. in a 10% CO2 atmosphere. Only TM cells from third through fifth passage were used. […]\nAt the conclusion of each experiment for matricellular and ECM protein detection, conditioned media (CM) from TM cell cultures was harvested and centrifuged at 5000 rpm for 10 minutes at 4° C. The supernatant was then concentrated (Amicon Ultra-4 Filter Unit, 10 kDa; Millipore, Milford, Mass.), and protein content quantified using the DC Protein Assay kit adhering to manufacturer's protocols (Bio-Rad, Hercules, Calif.). […] Samples were then centrifuged at 14,000 rpm for 15 minutes at 4° C. and protein content quantified. […] The membranes were then washed three times with 1×TBS-T, scanned, and integrated band intensities were calculated using an infrared imaging system (Odyssey; Li-Cor, Lincoln, Nebr.). […]"}}, "note": "“Also recorded” adds a separate entry of the source.", "data": [{"smiles": "NC(=O)c1ncn([C@@H]2O[C@H](CO)[C@@H](O)[C@H]2O)c1N", "note": "[AICAR, 5-Aminoimidazole-4-carboxamide riboside]", "values": [{"measurement": "cell morphology", "setting": "[1]; 0.5 mM AICAR, cultured TM cells (data not shown)", "result": "narrower cell bodies"}, {"measurement": "F-actin staining and actin stress fiber formation", "setting": "[1]; AICAR, basal and TGF-β2 stimulatory conditions", "result": "decreased F-actin staining and actin stress fiber formation; also recorded: decreased F-actin cytoskeletal staining, and fewer actin stress fibers"}, {"measurement": "peak increase of phospho-total ACC ratio", "setting": "[2]; at 6 hours", "result": 6.6, "unit": "fold"}, {"measurement": "change of phospho-total ACC ratio", "setting": "[2]; within 15 minutes", "result": "increased by a statistically significant degree"}]}]}
